# What was measured:
# [1] = biological target: Candida orthopsilosis Co 90-125 carbonyl reductase CoCR 13 variant R129L/D210T/S126A, SEQ ID NO: 5 (Lodderomyces orthopsilosis, UniProt H8WZT2, D210T/R129L/S126A); assay: Enzyme kinetic parameters (NADPH consumption at 340 nm), triple mutant; format: biochemical
# From the text: (§1) The present disclosure starts with the substrate channel of the carbonyl reductase protein structure of Candida orthopsilosis Co 90-125 (amino acid sequence as shown in SEQ ID NO: 1) with ID XP 003867714.1 in Genbank, analyzes the entrance segment and internal structural characteristics of the substrate channel, and performs iterative saturation mutagenesisit through semi-rational design, so as to determine that the key factor affecting the initial enzymatic properties of carbonyl reductase is the amino acids at positions R129, D210 and S126. […] On this basis, serine (Ser) at position 126 is replaced with alanine (Ala), to obtain the triple mutant R129L/D210T/S126A (amino acid sequence as shown in SEQ ID NO: 5).
# (§2) While the triple mutation changed from AGC to GCG at codons 376-378 of the carbonyl reductase double mutant gene sequence, thereby replacing serine(S) with alanine (A) at position 126 of the amino acid sequence, to obtain a triple mutant, wherein its amino acid sequence is shown in SEQ ID NO: 5, and the nucleotide sequence of the coding gene is shown in SEQ ID NO: 6.
# (§3) One enzyme activity unit U is defined as the amount of enzyme required to consume 1 μmol NADPH within 1 minute.
# (§4) The substrate concentration was set to be 0.1-10 mM, and the rest was the same enzyme activity determination system and reaction conditions as described above.
# [2] = biological target: Candida orthopsilosis Co 90-125 carbonyl reductase CoCR 13 variant R129L/D210T, SEQ ID NO: 3 (Lodderomyces orthopsilosis, UniProt H8WZT2, D210T/R129L); assay: Enzyme kinetic parameters (NADPH consumption at 340 nm), double mutant; format: biochemical
# From the text: as §1
# (§5) The double mutation R129L/D210T changed the codons 385-387 of the carbonyl reductase gene sequence from CGT to CTG, thereby replacing the 129th position of the amino acid sequence from arginine (R) to leucine (L); changed the codons 628-630th position from GAT to ACC, thereby the 210th position of the amino acid sequence from aspartic acid (D) to threonine (T), to obtain an enzyme mutant, wherein its amino acid sequence is shown in SEQ ID NO: 3, and the nucleotide sequence of the coding gene is shown in SEQ ID NO: 4.
# as §3, §4
# [3] = biological target: Candida orthopsilosis Co 90-125 carbonyl reductase CoCR 13 (Genbank XP_003867714.1), wild type (WT), SEQ ID NO: 1 (Lodderomyces orthopsilosis, UniProt H8WZT2); assay: Enzyme kinetic parameters (NADPH consumption at 340 nm), initial carbonyl reductase; format: biochemical
# From the text: On this basis, serine (Ser) at position 126 is replaced with alanine (Ala), to obtain the triple mutant R129L/D210T/S126A (amino acid sequence as shown in SEQ ID NO: 5).
# Through gene mining, the carbonyl reductase gene with Genbank ID XP_003867714.1 was screened from the NCBI database. The open reading frame of this gene is 1005 bp long, the carbonyl reductase encoded by it consists of 334 amino acids, and its amino acid sequence (334aa) is:
# as §3, §4
# CCOC(=O)CCCCC(=O)CCCl [4] = assay: Enzyme kinetic parameters (NADPH consumption at 340 nm), double mutant; format: biochemical, Candida orthopsilosis Co 90-125; conditions: other: R129L/D210T, substrate 0.1-10 mM, PB pH 7.0, 30° C.
# From the text: as §1, §5, §3, §4
# CCOC(=O)CCCCC(=O)CCCl [5] = assay: Enzyme kinetic parameters (NADPH consumption at 340 nm), triple mutant; format: biochemical, Candida orthopsilosis Co 90-125; conditions: other: R129L/D210T/S126A, substrate 0.1-10 mM, PB pH 7.0, 30° C.
# From the text: as §1, §2, §3, §4
# [6] = R129L/D210T/S126A, substrate 0.1-10 mM, NADPH, PB pH 7.0, 30° C.
# [7] = R129L/D210T, substrate 0.1-10 mM, NADPH, PB pH 7.0, 30° C.
# [8] = WT, substrate 0.1-10 mM, NADPH, PB pH 7.0, 30° C.
molecule,measurement,setting,value
CCOC(=O)CCCCC(=O)CCCl [8-chloro-6-oxooctanoic acid ethyl ester],Relative catalytic efficiency,[1]; R129L/D210T/S126A relative to WT,93.42
same,Catalytic efficiency (kcat/Km),[1]; [6],85950 M⁻¹ s⁻¹
same,Number of conversions (kcat),[1]; [6],69.46 ± 2.50 s⁻¹
same,catalytic efficiency increase compared to the initial carbonyl reductase,[1]; triple mutant vs initial carbonyl reductase,93.42 times
same,Relative catalytic efficiency,[2]; R129L/D210T relative to WT,31.65
same,Catalytic efficiency (kcat/Km),[2]; [7],29120 M⁻¹ s⁻¹
same,Number of conversions (kcat),[2]; [7],50.60 ± 1.49 s⁻¹
same,catalytic efficiency increase compared to the initial carbonyl reductase,[2]; double mutant vs initial carbonyl reductase,31.65 times
same,Relative catalytic efficiency,[3]; WT as reference (1.00),1.00
same,Catalytic efficiency (kcat/Km),[3]; [8],920 M⁻¹ s⁻¹
same,Number of conversions (kcat),[3]; [8],4.7 ± 0.33 s⁻¹
"Candida orthopsilosis Co 90-125 carbonyl reductase CoCR 13 variant R129L/D210T, SEQ ID NO: 3 (Lodderomyces orthopsilosis Co 90-125; D210T/R129L)",Km,CCOC(=O)CCCCC(=O)CCCl [4],1740 ± 160 µM
"Candida orthopsilosis Co 90-125 carbonyl reductase CoCR 13 variant R129L/D210T/S126A, SEQ ID NO: 5 (Lodderomyces orthopsilosis Co 90-125; D210T/R129L/S126A)",Km,CCOC(=O)CCCCC(=O)CCCl [5],810 ± 110 µM

# Source: patent publication US12319939B2, “Carbonyl reductase mutant and its application” (priority 2023, dated 2025)
